# Active and inactive are the calls of the source.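 How the source made its calls: active means a drop in nitrite signal whose fitted half-maximal concentration is at most ten times the top tested dose; inconclusive means flat fit with 30 to 70% inhibition, or poor curve fit; inactive means the rest.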
# Test: suppression of NO production in INS-1E cells – cell-based, Griess absorbance, dry powder, set 3, dose response (AID 488870)
# Settings: INS-1E cytokine-induced nitrite, Griess absorbance, 48 h; at 19.5 µM (top of the series)
row,Structure (SMILES),"activity change, negative = inhibition"
1,C[C@@H]1CN([C@H](C)CO)C(=O)c2cccc(NC(=O)Nc3ccc(F)cc3)c2O[C@H]1CN(C)S(=O)(=O)c1ccc(Cl)cc1,-5.33% (inactive)
2,COc1ccc(S(=O)(=O)N(C)C[C@@H]2Oc3c(NS(=O)(=O)c4ccccc4)cccc3C(=O)N([C@@H](C)CO)C[C@H]2C)cc1,2.87% (inactive)
3,Cc1ccc(S(=O)(=O)N(C)C[C@@H]2Oc3c(NC(=O)Nc4ccccc4)cccc3C(=O)N([C@@H](C)CO)C[C@H]2C)cc1,-10.1% (inactive)
4,COc1ccc(S(=O)(=O)N(C)C[C@@H]2Oc3c(NS(=O)(=O)c4ccc(C)cc4)cccc3C(=O)N([C@@H](C)CO)C[C@H]2C)cc1,-5.68% (inactive)
5,C[C@@H]1CN([C@@H](C)CO)C(=O)c2cccc(NC(=O)Nc3ccc(F)cc3)c2O[C@H]1CN(C)S(=O)(=O)c1ccc(Cl)cc1,-9.62% (inactive)
6,COc1ccc(S(=O)(=O)N(C)C[C@@H]2Oc3c(NC(=O)Nc4ccccc4)cccc3C(=O)N([C@H](C)CO)C[C@H]2C)cc1,-11% (inactive)
7,COc1ccc(S(=O)(=O)Nc2cccc3c2O[C@@H](CN(C)S(=O)(=O)c2ccc(OC)cc2)[C@H](C)CN([C@@H](C)CO)C3=O)cc1,-10.4% (inactive)
8,C[C@@H]1CN([C@@H](C)CO)C(=O)c2cccc(NC(=O)Nc3ccccc3)c2O[C@H]1CN(C)S(=O)(=O)c1ccc(F)cc1,-6.44% (inactive)
9,CNC[C@@H]1Oc2c(NC(=O)Nc3cccc4ccccc34)cccc2C(=O)N([C@@H](C)CO)C[C@H]1C,3.1% (inactive)
10,C[C@@H]1CN([C@@H](C)CO)C(=O)c2cccc(NC(=O)Nc3cccc4ccccc34)c2O[C@H]1CN(C)S(=O)(=O)c1ccccc1,-19.1% (inactive)
11,COc1ccc(S(=O)(=O)N(C)C[C@@H]2Oc3c(NC(=O)NC(C)C)cccc3C(=O)N([C@@H](C)CO)C[C@H]2C)cc1,7.35% (inactive)
12,COc1ccc(S(=O)(=O)N(C)C[C@@H]2Oc3c(NC(=O)C4CCCCC4)cccc3C(=O)N([C@@H](C)CO)C[C@H]2C)cc1,-0.334% (inactive)
13,COc1ccc(S(=O)(=O)N(C)C[C@@H]2Oc3c(NC(=O)Nc4ccc(F)cc4)cccc3C(=O)N([C@H](C)CO)C[C@H]2C)cc1,20.3% (inactive)
14,COc1ccc(S(=O)(=O)N(C)C[C@@H]2Oc3c(NC(=O)Nc4ccc(F)cc4)cccc3C(=O)N([C@@H](C)CO)C[C@H]2C)cc1,-7.65% (inactive)
15,C[C@@H]1CN([C@@H](C)CO)C(=O)c2cccc(NC(=O)Nc3ccccc3)c2O[C@H]1CN(C)S(=O)(=O)c1ccc(Cl)cc1,-8% (inactive)
16,COc1ccc(S(=O)(=O)N(C)C[C@@H]2Oc3c(NS(=O)(=O)c4ccc(Cl)cc4)cccc3C(=O)N([C@@H](C)CO)C[C@H]2C)cc1,-7.18% (inactive)
17,COc1ccc(S(=O)(=O)N(C)C[C@@H]2Oc3c(NC(=O)c4ccncc4)cccc3C(=O)N([C@@H](C)CO)C[C@H]2C)cc1,-12.3% (inactive)
18,COc1ccc(S(=O)(=O)N(C)C[C@@H]2Oc3c(NC(=O)Nc4cccc5ccccc45)cccc3C(=O)N([C@H](C)CO)C[C@@H]2C)cc1,3.88% (inactive)
19,COc1ccc(S(=O)(=O)N(C)C[C@@H]2Oc3c(NC(=O)C4CCOCC4)cccc3C(=O)N([C@@H](C)CO)C[C@H]2C)cc1,5.9% (inactive)
20,COc1ccc(S(=O)(=O)N(C)C[C@@H]2Oc3c(NC(=O)Nc4ccccc4)cccc3C(=O)N([C@@H](C)CO)C[C@H]2C)cc1,-7.93% (inactive)
21,COc1ccc(S(=O)(=O)N(C)C[C@@H]2Oc3c(NS(C)(=O)=O)cccc3C(=O)N([C@@H](C)CO)C[C@H]2C)cc1,-4.1% (inactive)
22,COc1ccc(S(=O)(=O)N(C)C[C@@H]2Oc3c(NC(=O)c4cccc5ccccc45)cccc3C(=O)N([C@@H](C)CO)C[C@H]2C)cc1,-13.8% (inactive)
